Data published in article PMC11189516, “Structure-guided conversion from an anaplastic lymphoma kinase inhibitor into Plasmodium lysyl-tRNA synthetase selective inhibitors” (Communications Biology, 2024).
“And” between values parts separate entries of the source, which are not always exact repeats. Equal entries are not always repeated. Where two headings read alike, the source gives them in different places. One block for each molecule: values may come before it.

Columns and labels:
PfLysRS [1] = molecular target: T1, PfLysRS (Plasmodium falciparum, UniProt Q8IDJ8); test: Thermal shift assay; type: binding
T1 construct: PfLysRS (77–583) was constructed in the vector pET20b, with a C-terminal 6×His tag; 6xHis (C); made in house; host or cells: E. coli BL21 (DE3)
T1 sequence (Q8IDJ8 entry or part of it): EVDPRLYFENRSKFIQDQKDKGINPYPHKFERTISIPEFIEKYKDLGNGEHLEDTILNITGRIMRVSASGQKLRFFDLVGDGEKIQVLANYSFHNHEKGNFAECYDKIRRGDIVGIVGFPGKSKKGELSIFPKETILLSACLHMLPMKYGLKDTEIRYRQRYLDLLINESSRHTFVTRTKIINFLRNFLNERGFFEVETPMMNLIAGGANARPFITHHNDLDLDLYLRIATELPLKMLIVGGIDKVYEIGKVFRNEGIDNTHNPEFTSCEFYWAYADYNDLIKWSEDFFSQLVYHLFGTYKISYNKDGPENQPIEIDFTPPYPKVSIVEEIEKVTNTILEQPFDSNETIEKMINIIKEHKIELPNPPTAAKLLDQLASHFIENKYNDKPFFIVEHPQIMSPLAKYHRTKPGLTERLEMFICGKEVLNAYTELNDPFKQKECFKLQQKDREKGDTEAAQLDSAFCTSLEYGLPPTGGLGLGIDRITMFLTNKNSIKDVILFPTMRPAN
Description: PfLysRS protein was prepared at 10 μM concentration in a buffer containing 20 mM Tris pH 8.0, 200 mM NaCl, 500 μM L-lysine, and 200 μM Compound. Aliquots (18 µL) were added to a 96-well PCR plate and incubated at ambient temperature for 10 min. SYPRO Orange dye (Sigma) was diluted in the assay buffer containing 20 mM Tris pH 8.0 and 200 mM NaCl to a 40× concentration, and 2 µL of the 40× dye solution was added to the PCR plate to bring the final assay volume to 20 µL. After complete mixing, the final solutions were heated from 25 to 90 °C at a rate of 0.015 °C per sec, and fluorescence signals were monitored by QuantStudio 3 (Applied Biosystems by Thermo Fisher Scientific).

PfLysRS [2] = molecular target: T1, PfLysRS; test: Surface plasmon resonance (SPR) assay; type: binding; settings: immobilized PfLysRS; for Kd: 1 mM L-lysine in running buffer, read-out: dissociation constant (KD)
Description: PfLysRS was chemically immobilized on a Biacore CM5 sensorchip (immobilization level ~20000 resonance unit/RU) at pH 5.0 according to the immobilization kit (GE Healthcare). PfLysRS (1.7 nM) was captured for 90 s at a flow of 30 µL·min^−1. Affnity between PfLysRS and compounds was measured by SPR on a Biacore 8 K (GE Healthcare) at 25 °C with a running buffer (0.02 M phosphate buffer pH 7.4, 2.7 mM KCl, 0.137 M NaCl, 0.05% Tween 20, with 1 mM L-lysine). The association time was 90 s, the dissociation time was 120 s, and the flowrate was 30 µL·min^−1. Kinetic evaluation of the interaction between LysRS and compounds was performed by global fitting of the data to a 1:1 interaction model using Biacore Evaluation Software 3.1 (GE Healthcare).

PfLysRS [3] = molecular target: T1, PfLysRS; test: ATP hydrolysis assay (Kinase-Glo) on PfLysRS; type: biochemical; settings: for LogIC50 (best-fit value): log of nM
Description: (§1) The ATP hydrolysis assays were based on Kinase-Glo luminescent Kit (Promega). The experiment was carried out in Corning 384-well white flat bottom microplates. The buffer in the reaction contains 25 mM Hepes pH 7.4, 140 mM NaCl, 40 mM MgCl2, 30 mM KCl, 1 mM TCEP, 0.1 mg·mL^−1 BSA, and 0.004% Tween-20. The compounds were diluted to different concentrations with a 5-fold gradient.
(§2) For LysRS assays, DMSO was added into negative control wells and L-lysine was removed in positive control wells. 100 nM LysRS in 2.5 μL Hepes buffer was mixed with compounds and incubated for 10 min. Then 5 μL substrate mixture (2 μM ATP, 10 μM L-lysine and 31 nM pyrophosphatase) was added to start the reaction at 37 °C and incubated for 6 h.
(§3) When the reaction reaches the planned time, 10 μL diluted Kinase-Glo reagent (1/50 diluted with a buffer containing 50 mM Tris pH 7.5 and 5% glycerol) was added and incubated for 15 min. Luminescence was measured on the Magellan plate reader (Tecan) and nonlinear regression was performed with Prism (GraphPad).

HsLysRS = molecular target: T2, HsLysRS (Homo sapiens, UniProt Q15046); test: ATP hydrolysis assay (Kinase-Glo) on HsLysRS; type: biochemical; settings: for LogIC50 (best-fit value): log of nM
T2 construct: HsLysRS (70–581) was constructed in the vector pET20b with a C-terminal 6×His tag; 6xHis (C); made in house; host or cells: E. coli (pET20b; 'purified similarly' to PfLysRS, which was expressed in BL21 (DE3))
T2 sequence (Q15046 70-581): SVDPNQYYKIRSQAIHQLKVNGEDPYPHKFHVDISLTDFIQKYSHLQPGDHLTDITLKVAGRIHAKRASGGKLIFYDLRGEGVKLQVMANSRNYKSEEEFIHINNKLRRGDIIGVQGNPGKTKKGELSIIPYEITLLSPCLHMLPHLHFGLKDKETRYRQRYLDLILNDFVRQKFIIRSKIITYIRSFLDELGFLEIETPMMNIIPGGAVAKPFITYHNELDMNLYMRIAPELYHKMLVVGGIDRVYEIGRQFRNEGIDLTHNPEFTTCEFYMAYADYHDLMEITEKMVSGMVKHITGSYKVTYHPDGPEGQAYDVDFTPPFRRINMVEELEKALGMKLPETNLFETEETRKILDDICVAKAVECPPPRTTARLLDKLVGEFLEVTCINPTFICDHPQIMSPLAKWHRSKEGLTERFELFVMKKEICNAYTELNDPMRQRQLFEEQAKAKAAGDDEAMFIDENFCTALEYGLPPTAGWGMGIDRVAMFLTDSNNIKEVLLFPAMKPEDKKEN
Description: as §1, §2, §3

[4] = test system: erythrocytic-stage P. falciparum 3D7 parasites; test: In vitro Plasmodium growth assay; type: cell-based, Plasmodium falciparum; settings: for HillSlope (best-fit value): Plasmodium falciparum 3D7; for LogIC50 (best-fit value): Plasmodium falciparum 3D7, log of nM; for IC50: Plasmodium falciparum 3D7, source data, read-out: IC50 (best-fit value); for EC50: Plasmodium falciparum, 3D7, 72 h
Description: Parasites were cultured in human O+ erythrocytes according to standard procedures. To prepare the >80% ring stage parasites, asynchronous cultures of parasites were pretreated with 5% sorbitol, and P. falciparum strain 3D7 at the mid-ring stage (6–10 h post-invasion) was used to test antimalarial effects in 96-well plates. Parasites were incubated in a 96-well plate with compound containing 1% parasitemia and, 2% hematocrit for a total volume of 200 μL. […] A relevant DMSO concentration was used as a negative control, and cultured erythrocytes without Plasmodium served as a positive control. The parasites were allowed to grow for 72 h at 37 °C with 5% CO2, 5% O2, and 90% N2. After 72 h, 100 μL of lysis buffer (0.12 mg·mL^−1 Saponin, 0.12% Triton X-100, 30 mM Tris-HCl pH 8.0, and 7.5 mM EDTA) with 5× SYBR Green I (Invitrogen; supplied in 10000× concentration) was added to each well of the plate. The plates were then incubated for 2 h in the dark prior to reading the fluorescence signal at 485 nm excitation and 535 nm emission. The percentage of inhibition was calculated by (NC-fluorescence) × 100/(NC-PC).

[5] = Solubility noted in the cytotoxicity assay; type: physicochemical; settings: highest concentration limited to 100 μM in cell medium
Description: Cell viability was analyzed by Cell Counting Kit-8 (CCK8, ApexBio) according to the manufacturer’s protocols. Cells were seeded and cultured at a density of 2.5 × 10^3 cells per well in 100 μL medium in 96-well microplates (Corning). Then, the cells were treated with different concentrations of compound (0, 1 μM, 3 μM, 10 μM, 100 μM, 300 μM). […] After treatment for 72 h, 10 μL of CCK-8 reagent was added to each well and then cultured for 4 h. All experiments were performed in pentaplicate. The absorbance was analyzed at 450 nm using a microplate reader (Tecan) using medium without cells as blanks. Data was processed using GraphPad Prism 9.

[6] = +Lysine, sheet Figure 6B, in °C (unit assumed)
[7] = PfLysRS, source data, read-out: IC50 (best-fit value)
[8] = HsLysRS, Log(Concentration)/nM 2.505, single repeats
[9] = HsLysRS, Log(Concentration)/nM 3.204, single repeats
[10] = HsLysRS, Log(Concentration)/nM 3.903, single repeats
[11] = HsLysRS, Log(Concentration)/nM 4.602, single repeats
[12] = HsLysRS, Log(Concentration)/nM 5.301, single repeats
[13] = HsLysRS, source data, read-out: IC50 (best-fit value)
[14] = P. falciparum 3D7, Log(Concentration)/nM 2.290, single repeats
[15] = P. falciparum 3D7, Log(Concentration)/nM 2.592, single repeats
[16] = P. falciparum 3D7, Log(Concentration)/nM 2.893, single repeats
[17] = P. falciparum 3D7, Log(Concentration)/nM 3.193, single repeats
[18] = P. falciparum 3D7, Log(Concentration)/nM 3.496, single repeats
[19] = P. falciparum 3D7, Log(Concentration)/nM 3.796, single repeats
[20] = P. falciparum 3D7, Log(Concentration)/nM 4.097, single repeats
[21] = P. falciparum 3D7, Log(Concentration)/nM 4.398, single repeats
[22] = P. falciparum 3D7, Log(Concentration)/nM 4.699, single repeats
[23] = P. falciparum 3D7, Log(Concentration)/nM 5.000, single repeats

Tm of PfLysRS, Average (PfLysRS [1]; +Lysine): 54.438 °C
△Tm of PfLysRS (PfLysRS [1]; +Lysine, sheet Figure 6B): 10.644
Tm of PfLysRS, Average (PfLysRS [1]; [6]): 55.664
Tm of PfLysRS, single repeat (PfLysRS [1]; [6]): 55.710 and 55.464 and 56.018
Tm of PfLysRS, Average (PfLysRS [1]; -Lysine): 53.158 °C
ΔTm at 200 µM (PfLysRS [1]; in the absence of L-lysine): 11.7 °C
ΔTm at 200 µM (PfLysRS [1]; in the presence of L-lysine): 11.8 °C
koff (PfLysRS [2]): 0.0144 s⁻¹
kon (PfLysRS [2]): 907000 M/s
Kd (PfLysRS [2]): 15.9 nM
HillSlope (best-fit value) (PfLysRS [3]; PfLysRS): 1.442
LogIC50 (best-fit value) (PfLysRS [3]; PfLysRS): 2.296
IC50 (PfLysRS [3]; [7]): 198 nM
IC50 (PfLysRS [3]; read-out: IC50 against PfLysRS): 198 nM
HillSlope (best-fit value) (HsLysRS; HsLysRS): 0.3683
% Inhibition (HsLysRS; HsLysRS, Log(Concentration)/nM 1.806, single repeats): 3.227% and 2.137% and -5.363%
% Inhibition (HsLysRS; [8]): 19.3% and 12.84% and 21.95%
% Inhibition (HsLysRS; [9]): 37.3% and 27.64% and 28.87%
% Inhibition (HsLysRS; [10]): 26.36% and 22.16% and 26.38%
% Inhibition (HsLysRS; [11]): 50.64% and 39% and 42.59%
% Inhibition (HsLysRS; [12]): 74.45% and 64.99% and 63.03%
LogIC50 (best-fit value) (HsLysRS; HsLysRS): 5.258
IC50 (HsLysRS; [13]): 181000 nM
IC50 (HsLysRS; read-out: IC50 against HsLysRS): > 181000 nM
SMILES: COc1ccc(OC)c(Nc2ncnc(Nc3ccccc3S(=O)(=O)C(C)C)n2)c1 [Compound 36]
Tm of PfLysRS, single repeat (PfLysRS [1]; +Lysine): 54.731 °C and 54.237 °C and 54.854 °C and 53.929 °C
Tm of PfLysRS, single repeat (PfLysRS [1]; -Lysine): 53.374 °C and 52.819 °C and 53.251 °C and 53.189 °C
% Inhibition [4, 14]: -1.297% and 4.596% and -3.299%
% Inhibition [4, 15]: 14.49% and 16.27% and 6.82%
% Inhibition [4, 16]: 56.52% and 50.3% and 49.85%
% Inhibition [4, 17]: 89.44% and 83.77% and 86.88%
% Inhibition [4, 18]: 95.44% and 97.78% and 98.22%
% Inhibition [4, 19]: 97.55% and 97.66% and 100.2%
% Inhibition [4, 20]: 99.56% and 100.2% and 100.1%
% Inhibition [4, 21]: 98.55% and 100.8% and 100.2%
% Inhibition [4, 22]: 98.67% and 100.8% and 100.6%
% Inhibition [4, 23]: 90.1% and 96% and 96.11%
HillSlope (best-fit value) [4]: 2.726
LogIC50 (best-fit value) [4]: 2.867
IC50 [4]: 736 nM
EC50 [4]: 736 nM
solubility [5]: poor solubility

Tm of PfLysRS, Average (PfLysRS [1]; +Lysine): 52.704 °C
Tm of PfLysRS, Average (PfLysRS [1]; -Lysine): 50.586 °C
ΔTm at 200 µM (PfLysRS [1]; in the absence of L-lysine): 7.6 °C
ΔTm at 200 µM (PfLysRS [1]; in the presence of L-lysine): ~9 °C
koff (PfLysRS [2]): 0.0137 s⁻¹
kon (PfLysRS [2]): 218000 M/s
Kd (PfLysRS [2]): 62.8 nM
HillSlope (best-fit value) (PfLysRS [3]; PfLysRS): 0.6107
LogIC50 (best-fit value) (PfLysRS [3]; PfLysRS): 2.959
IC50 (PfLysRS [3]; [7]): 910 nM
IC50 (PfLysRS [3]; read-out: IC50 against PfLysRS): 910 nM
HillSlope (best-fit value) (HsLysRS; HsLysRS): 2.263
% Inhibition (HsLysRS; [8]): 4.732% and 9.196% and 7.614%
% Inhibition (HsLysRS; [9]): 10.26% and 9.294% and 11.16%
% Inhibition (HsLysRS; [10]): 5.367% and 4.771% and 4.914%
% Inhibition (HsLysRS; [11]): 24.12% and 17.72% and 16.76%
% Inhibition (HsLysRS; [12]): 34.85% and 34.96% and 31.62%
% Inhibition (HsLysRS; HsLysRS, Log(Concentration)/nM 6.000, single repeats): 100.3% and 101% and 91.99%
LogIC50 (best-fit value) (HsLysRS; HsLysRS): 5.476
IC50 (HsLysRS; [13]): 299000 nM
selectivity of PfLysRS over human LysRS (HsLysRS) (HsLysRS; in vitro): 328 times
IC50 (HsLysRS; read-out: IC50 against HsLysRS): 299000 ± 34000 nM
SMILES: COc1ccccc1Nc1ncnc(Nc2ccccc2S(=O)(=O)C(C)C)n1 [Compound 38]
Tm of PfLysRS, single repeat (PfLysRS [1]; +Lysine): 52.703 °C and 52.673 °C and 52.642 °C and 52.796 °C
Tm of PfLysRS, single repeat (PfLysRS [1]; -Lysine): 50.911 °C and 50.756 °C and 50.045 °C and 50.632 °C
% Inhibition [4, 14]: 0.5244% and -0.5244%
% Inhibition [4, 15]: 0.1049% and 1.993%
% Inhibition [4, 16]: 5.139% and 2.098%
% Inhibition [4, 17]: 11.12% and 9.229%
% Inhibition [4, 18]: 30.2% and 31.57%
% Inhibition [4, 19]: 64.29% and 65.65%
% Inhibition [4, 20]: 93.45% and 91.87%
% Inhibition [4, 21]: 99.84% and 98.9%
% Inhibition [4, 22]: 100.4% and 99.63%
% Inhibition [4, 23]: 98.16% and 95.65%
HillSlope (best-fit value) [4]: 2.23
LogIC50 (best-fit value) [4]: 3.663
IC50 [4]: 4610 nM
EC50 [4]: 4610 ± 120 nM
solubility [5]: poor solubility
